The numbers were not newly measured in US20110318267A1, “PH-RESPONSIVE NANOSTRUCTURES” (PRESIDENT AND FELLOWS OF HARVARD COLLEGE, priority 2008, published 2011), which cites them from elsewhere.

What is called pKa is the pH at which an ionisable group is half protonated.

`C=C(C)C(=O)OCCN(C)C` [DMAEMA, dimethylaminoethyl methacrylate]: the pKa is recorded as 7.5.
